Source: PubChem BioAssay AID248 (DTP/NCI, 2004)
Where “and” joins values, the source holds several entries; their conditions need not be identical. Equal entries are not always repeated. Toxic doses and inconclusive results are not listed. Rule as the data show it: active = T/C of 150% or more; inactive = T/C below 125%.

Test system: L1210 leukemia ip in BDF1 mice, survival T/C
Assay: NCI In Vivo Anticancer Drug Screen. Data for tumor model L1210 Leukemia (intraperitoneal) in B6D2F1 (BDF1) mice
Conditions: endpoint: mean survival time, higher = longer survival
In short: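 In this screen, tumor-bearing mice given compound are compared to those given vehicle, and their survival values are reported as a treated-to-control quotient.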

[1] = dose: 100.0 mg/kg/injection, schedule: Q04DX002 (ip), vehicle: Klucel (hydroxypropylcellulose) (HPC)
[2] = dose: 200.0 mg/kg/injection, schedule: Q04DX002 (ip), vehicle: Klucel (hydroxypropylcellulose) (HPC)
[3] = dose: 400.0 mg/kg/injection, schedule: Q04DX002 (ip), vehicle: Klucel (hydroxypropylcellulose) (HPC)
[4] = dose: 100.0 mg/kg/injection, schedule: Q04DX003 (ip), vehicle: Klucel (hydroxypropylcellulose) (HPC)
[5] = dose: 200.0 mg/kg/injection, schedule: Q04DX003 (ip), vehicle: Klucel (hydroxypropylcellulose) (HPC)
[6] = dose: 400.0 mg/kg/injection, schedule: Q04DX003 (ip), vehicle: Klucel (hydroxypropylcellulose) (HPC)
[7] = dose: 100.0 mg/kg/injection, schedule: Q04DX003 (ip), vehicle: saline
[8] = dose: 200.0 mg/kg/injection, schedule: Q04DX003 (ip), vehicle: saline
[9] = dose: 50.0 mg/kg/injection, schedule: Q01DX009 (ip), vehicle: saline with Tween-80
[10] = dose: 100.0 mg/kg/injection, schedule: Q01DX009 (ip), vehicle: saline with Tween-80
[11] = dose: 100.0 mg/kg/injection, schedule: Q01DX009 (ip), vehicle: Klucel (hydroxypropylcellulose) (HPC)
[12] = dose: 200.0 mg/kg/injection, schedule: Q01DX009 (ip), vehicle: Klucel (hydroxypropylcellulose) (HPC)
[13] = dose: 400.0 mg/kg/injection, schedule: Q01DX009 (ip), vehicle: Klucel (hydroxypropylcellulose) (HPC)
[14] = dose: 200.0 mg/kg/injection, schedule: Q01DX009 (ip), vehicle: saline with Tween-80
[15] = dose: 25.0 mg/kg/injection, schedule: Q01DX009 (ip), vehicle: saline with Tween-80

Measured: T/C

N#CCCn1c(=O)n(CCC#N)c(=O)n(CCC#N)c1=O
inactive: [1] 104 % of control | [2] 97 % of control | [3] 93 % of control

CC(=O)NC1CCCC(CC2CCCCC2)C1 (configuration not stated)
inactive: [4] 103 % of control | [5] 93 % of control | [6] 98 % of control

CSc1n[nH]c(N=[N+]=[N-])n1
inactive: dose: 100.0 mg/kg/injection, schedule: Q04DX002 (ip), vehicle: saline with Tween-80 104 % of control | dose: 200.0 mg/kg/injection, schedule: Q04DX002 (ip), vehicle: saline with Tween-80 115 % of control | dose: 400.0 mg/kg/injection, schedule: Q04DX002 (ip), vehicle: saline with Tween-80 104 % of control

NNC(=O)c1cc2ccncc2c2sc3ccccc3c12
inactive: [7] 92 % of control | [8] 88 % of control | dose: 400.0 mg/kg/injection, schedule: Q04DX003 (ip), vehicle: saline 97 % of control

C[C@]12CC[C@@H]3c4ccc(O)cc4CC[C@H]3[C@@H]1C[C@@H](O)[C@@H]2O
inactive: dose: 25.0 mg/kg/injection, schedule: Q01DX001 (sc), vehicle: steriod suspending solution 104 % of control | dose: 50.0 mg/kg/injection, schedule: Q01DX001 (sc), vehicle: steriod suspending solution 107 % of control | dose: 100.0 mg/kg/injection, schedule: Q01DX001 (sc), vehicle: steriod suspending solution 109 % of control | dose: 125.0 mg/kg/injection, schedule: Q04DX003 (sc), vehicle: steriod suspending solution 100 % of control | dose: 200.0 mg/kg/injection, schedule: Q01DX001 (sc), vehicle: steriod suspending solution 106 % of control | dose: 250.0 mg/kg/injection, schedule: Q04DX003 (sc), vehicle: steriod suspending solution 105 % of control | dose: 500.0 mg/kg/injection, schedule: Q04DX003 (sc), vehicle: steriod suspending solution 100 % of control

Cc1ccc(Nc2nc(N)nc(N)c2Cl)cc1
inactive: [9] 94 % of control | [10] 91 % of control

COCCCNP(=S)(N1CC1)N1CC1
inactive: dose: 2.0 mg/kg/injection, schedule: Q01DX Z (ip), vehicle: saline 92 % of control | dose: 4.0 mg/kg/injection, schedule: Q01DX Z (ip), vehicle: saline 116 % of control

Cc1ccc(Cl)cc1N1C(=O)CC(Sc2ccccc2N)C1=O (configuration not stated)
inactive: [11] 90 % of control | [4] 90 % of control | [12] 90 % of control | [5] 95 % of control | [13] 90 % of control | [6] 90 % of control

CC(=O)NO
inactive: dose: 100.0 mg/kg/injection, schedule: Q04DX002 (ip), vehicle: saline 102 % of control | dose: 200.0 mg/kg/injection, schedule: Q04DX002 (ip), vehicle: saline 112 % of control | dose: 400.0 mg/kg/injection, schedule: Q04DX002 (ip), vehicle: saline 108 % of control

CCNC(C)(C)C(SS(=O)(=O)O)c1ccc(Cl)s1 (configuration not stated)
inactive: [10] 96 % of control | dose: 100.0 mg/kg/injection, schedule: Q04DX003 (ip), vehicle: saline with Tween-80 102 % of control | [14] 90 % of control | dose: 200.0 mg/kg/injection, schedule: Q04DX003 (ip), vehicle: saline with Tween-80 96 % of control | dose: 400.0 mg/kg/injection, schedule: Q04DX003 (ip), vehicle: saline with Tween-80 92 % of control

COc1cccc(-c2nc3ccccc3s2)c1OC
inactive: dose: 25.0 mg/kg/injection, schedule: Q04DX003 (ip), vehicle: DMSO 88 % of control | dose: 50.0 mg/kg/injection, schedule: Q04DX003 (ip), vehicle: DMSO 95 % of control | dose: 100.0 mg/kg/injection, schedule: Q04DX003 (ip), vehicle: DMSO 92 % of control and 96 % of control

CCCCCCC1=NC(C)(C)CO1
inactive: [15] 102 % of control | [9] 97 % of control | dose: 50.0 mg/kg/injection, schedule: Q04DX003 (ip), vehicle: saline 99 % of control | [10] 102 % of control | [7] 97 % of control | [14] 102 % of control | [8] 91 % of control

CCOC(=O)NN(C(=O)OCC)c1c(NN)n(C)c(=O)n(C)c1=O
inactive: dose: 75.0 mg/kg/injection, schedule: Q04DX003 (ip), vehicle: saline 107 % of control | dose: 150.0 mg/kg/injection, schedule: Q04DX003 (ip), vehicle: saline 93 % of control | dose: 300.0 mg/kg/injection, schedule: Q04DX003 (ip), vehicle: saline 91 % of control

O=c1ccncn1Cc1ccccc1
inactive: dose: 100.0 mg/kg/injection, schedule: Q01DX001 (ip), vehicle: Klucel (hydroxypropylcellulose) (HPC) 100 % of control | dose: 200.0 mg/kg/injection, schedule: Q01DX001 (ip), vehicle: Klucel (hydroxypropylcellulose) (HPC) 97 % of control | dose: 400.0 mg/kg/injection, schedule: Q01DX001 (ip), vehicle: Klucel (hydroxypropylcellulose) (HPC) 91 % of control

Nc1c2c(nc3ccccc13)CCCC2
inactive: dose: 0.78 mg/kg/injection, schedule: Q04DX003 (ip), vehicle: saline 101 % of control | dose: 1.56 mg/kg/injection, schedule: Q01DX009 (ip), vehicle: saline 98 % of control | dose: 1.56 mg/kg/injection, schedule: Q04DX003 (ip), vehicle: saline 93 % of control | dose: 3.12 mg/kg/injection, schedule: Q01DX009 (ip), vehicle: saline 93 % of control | dose: 3.12 mg/kg/injection, schedule: Q04DX003 (ip), vehicle: saline 104 % of control | dose: 6.25 mg/kg/injection, schedule: Q04DX003 (ip), vehicle: saline 96 % of control | dose: 12.5 mg/kg/injection, schedule: Q04DX003 (ip), vehicle: saline 95 % of control

N/C(=N/N=C/c1ccccn1)N[N+](=O)[O-]
inactive: dose: 12.5 mg/kg/injection, schedule: Q01DX009 (ip), vehicle: saline with Tween-80 105 % of control | dose: 12.5 mg/kg/injection, schedule: Q04DX003 (ip), vehicle: saline with Tween-80 119 % of control | [15] 101 % of control | dose: 25.0 mg/kg/injection, schedule: Q04DX003 (ip), vehicle: saline with Tween-80 105 % of control | dose: 50.0 mg/kg/injection, schedule: Q04DX003 (ip), vehicle: saline with Tween-80 114 % of control

COc1ccc(C=Nc2cccc3ccccc23)cc1
inactive: [4] 98 % of control | [5] 96 % of control | [6] 103 % of control

O=C(O)C=C(CBr)CBr
inactive: dose: 10.0 mg/kg/injection, schedule: Q01DX001 (ip), vehicle: saline 93 % of control | dose: 20.0 mg/kg/injection, schedule: Q01DX001 (ip), vehicle: saline 94 % of control | dose: 40.0 mg/kg/injection, schedule: Q01DX001 (ip), vehicle: saline 109 % of control

C1=C(c2ccccc2)N(CCc2ccccc2)C(c2ccccc2)=CN1Cc1ccccc1
inactive: [1] 96 % of control | [2] 103 % of control | [3] 92 % of control

Cc1nc(N)c2c(n1)C(Cc1ccccc1)N(C(=O)c1ccccc1)C2 (configuration not stated)
inactive: dose: 100.0 mg/kg/injection, schedule: Q01DX001 (ip), vehicle: carboxymethylcellulose (CMC) 97 % of control | dose: 200.0 mg/kg/injection, schedule: Q01DX001 (ip), vehicle: carboxymethylcellulose (CMC) 97 % of control | dose: 400.0 mg/kg/injection, schedule: Q01DX001 (ip), vehicle: carboxymethylcellulose (CMC) 103 % of control

CC(C)N(C(=O)c1ccccc1Cl)c1ccccc1
inactive: [11] 92 % of control | [12] 103 % of control | [13] 103 % of control

[N-]=C(CC(=O)c1ccccc1)c1ccccc1.[N-]=C(CC(=O)c1ccccc1)c1ccccc1.[Ni+2]
inactive: dose: 12.5 mg/kg/injection, schedule: Q04DX003 (ip), vehicle: Klucel (hydroxypropylcellulose) (HPC) 90 % of control | dose: 25.0 mg/kg/injection, schedule: Q04DX003 (ip), vehicle: Klucel (hydroxypropylcellulose) (HPC) 93 % of control | dose: 50.0 mg/kg/injection, schedule: Q04DX003 (ip), vehicle: Klucel (hydroxypropylcellulose) (HPC) 91 % of control | [4] 90 % of control | [5] 93 % of control | [6] 90 % of control

CNC(CCC(=O)O)C(=O)O (configuration not stated)
inactive: dose: 100.0 mg/kg/injection, schedule: Q01DX001 (ip), vehicle: saline 89 % of control | dose: 200.0 mg/kg/injection, schedule: Q01DX001 (ip), vehicle: saline 96 % of control | dose: 400.0 mg/kg/injection, schedule: Q01DX001 (ip), vehicle: saline 91 % of control

C=CCCCCCCCCC(=O)N/N=C/c1cccs1
inactive: [11] 95 % of control | [12] 100 % of control | [13] 105 % of control
